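Each compound was tested at five concentrations against cells in 96-well plates for 48 hours. GI50: concentration for 50% inhibition of growth.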 Calls of active or inactive are those of the source. Cut-off read from the data, not from the text of the source: active = GI50 up to about 1.1 µM and inactive = higher.

Among the test systems are SNB-75; HCT-116; MDA-N; DU-145; SN12C; MDA-MB-435; RPMI-8226; SF-539; SK-MEL-2; IGROV-1; SNB-19; MOLT-4; BT-549; 786-0; PC-3; HT-29; UACC-257; NCI-H460; HCC 2998; CCRF-CEM.
Common to all, as to assay: NCI anticancer screen, dose series, 48 h

Regarding `Cc1cc(Cc2c(C)c(C)c(Cc3cc(C)cc(C(C)(C)C)c3O)c(C)c2C)c(O)c(C(C)(C)C)c1`, the GI50 with SNB-75, in the assay on HCT-116, in the assay with MDA-N, with DU-145, in the assay with SN12C and in the assay with MDA-MB-435 was > 100 µM (inactive) in each case. Also, the GI50 is > 100 µM (inactive) in the assay with RPMI-8226; > 100 µM (inactive) in the assay on SF-539; > 100 µM (inactive) in the assay on SK-MEL-2; > 100 µM (inactive) with IGROV-1; > 100 µM (inactive) with SNB-19; 1.56 µM (inactive) in the assay on MOLT-4. In addition, the GI50 in the assay with BT-549, in the assay with 786-0, with PC-3, in the assay with HT-29, with UACC-257 and in the assay with NCI-H460 was > 100 µM (inactive) each time.
On to `CC(=O)C1(c2ccccc2)CCCN(C)CC1` (stereo not drawn), for which the GI50 with SNB-75 is > 100 µM (inactive); in the assay on HCT-116, > 100 µM (inactive); in the assay on MDA-N it was > 10 µM (inactive); with HCC 2998, > 100 µM (inactive); with DU-145, > 100 µM (inactive); in the assay on MDA-MB-435, > 100 µM (inactive). In addition, the GI50 in the assay with RPMI-8226, in the assay on SK-MEL-2, in the assay with IGROV-1, with SNB-19, in the assay with MOLT-4 and in the assay on BT-549 was > 100 µM (inactive) throughout. Further, the GI50 with PC-3, with CCRF-CEM, with HT-29, in the assay with UACC-257 and with NCI-H460 was > 100 µM (inactive) each time.
As to `ClC1=C(Cc2ccccc2)Cc2ccc3c(c21)CCC3`, the GI50 in the assay with SNB-75 was > 10 µM (inactive); in the assay with HCT-116 it was 28.3 µM (inactive); in the assay on MDA-N, 36.6 µM (inactive); in the assay on HCC 2998, 20 µM (inactive); in the assay with DU-145 it was 48.5 µM (inactive); with SN12C, 34.4 µM (inactive). Also, the GI50 was 28 µM (inactive) in the assay on MDA-MB-435; 29.4 µM (inactive) in the assay on RPMI-8226; 74.3 µM (inactive) in the assay with SF-539; 41.9 µM (inactive) in the assay on IGROV-1; 21.5 µM (inactive) in the assay on SNB-19; 19.1 µM (inactive) in the assay with MOLT-4. Besides, the GI50 in the assay on BT-549 was 31.1 µM (inactive); with 786-0 it was 30.4 µM (inactive); in the assay with PC-3 it was 32.3 µM (inactive); in the assay with CCRF-CEM it was 27.9 µM (inactive); in the assay on HT-29 it was 22.6 µM (inactive); in the assay with UACC-257 it was 23.1 µM (inactive).
For `O=C(CC(=O)N1N=C(N2CCCCC2)CC1c1ccccc1)Nc1ccc(Cl)cc1` (stereo not drawn), the GI50 in the assay with SNB-75, in the assay with HCT-116, in the assay with MDA-N, with HCC 2998, with DU-145 and in the assay with SN12C was > 100 µM (inactive) each time. The GI50 with MDA-MB-435, in the assay with SK-MEL-2, in the assay on IGROV-1, with SNB-19, in the assay on MOLT-4 and in the assay with BT-549 was > 100 µM (inactive) in each case. Besides, the GI50 in the assay on 786-0, in the assay on PC-3, in the assay on CCRF-CEM, with HT-29, in the assay with UACC-257 and in the assay with NCI-H460 was > 100 µM (inactive) throughout.
As to `c1ccc(Nc2nnc(-c3ccccc3Nc3ccccc3-c3nnc(Nc4ccccc4)s3)s2)cc1`, the GI50 with SNB-75, with HCT-116, with MDA-N, in the assay on HCC 2998, in the assay on DU-145 and with MDA-MB-435 was > 100 µM (inactive) throughout. Moreover, the GI50 was > 100 µM (inactive) with SF-539; > 100 µM (inactive) in the assay with SK-MEL-2; 7.14 µM (inactive) in the assay with IGROV-1; > 100 µM (inactive) in the assay with SNB-19; 61.7 µM (inactive) in the assay with MOLT-4; > 100 µM (inactive) in the assay on BT-549. For the same compound, the GI50 with 786-0, in the assay with PC-3, with CCRF-CEM, with HT-29, in the assay with UACC-257 and in the assay with NCI-H460 was > 100 µM (inactive) throughout.
With `COc1cc([C@@]23OC[C@@H]4[C@@H](OC[C@@H]42)c2cc4c(cc23)OCO4)cc(OC)c1OC`, the GI50 in the assay with SNB-75, with HCT-116, with MDA-N, in the assay on HCC 2998, in the assay with DU-145 and in the assay on MDA-MB-435 was < 0.01 µM (active) throughout. Also, the GI50 in the assay with SF-539 was < 0.01 µM (active); with SK-MEL-2, < 0.01 µM (active); in the assay on IGROV-1 it was < 0.01 µM (active); in the assay with SNB-19 it was < 0.01 µM (active); in the assay with MOLT-4, < 0.01 µM (active); with BT-549, < 0.0304 µM (active). Also, the GI50 in the assay on 786-0, in the assay on PC-3, in the assay on CCRF-CEM, in the assay on HT-29, in the assay with UACC-257 and with NCI-H460 was < 0.01 µM (active) each time.
Take `COc1ccccc1N1CCN(CCCN2C(C(=O)c3ccccc3)=C(O)c3c(C)cc(C)nc3S2(=O)=O)CC1`: the GI50 with SNB-75 was 5.87 µM (inactive); with HCT-116, 61.2 µM (inactive); in the assay with MDA-N, > 100 µM (inactive); in the assay on DU-145, > 100 µM (inactive); in the assay with SN12C it was 63 µM (inactive); with MDA-MB-435, > 100 µM (inactive). In addition, the GI50 with SF-539 is > 100 µM (inactive); with SK-MEL-2 it was > 100 µM (inactive); with IGROV-1, 72.1 µM (inactive); with SNB-19 it was 48.8 µM (inactive); with MOLT-4 it was 24.8 µM (inactive); in the assay on BT-549, > 100 µM (inactive). For the same compound, the GI50 in the assay with 786-0 was 39.5 µM (inactive); in the assay with PC-3, > 100 µM (inactive); in the assay on CCRF-CEM it was 52.5 µM (inactive); in the assay on HT-29, 34.8 µM (inactive); in the assay with UACC-257, 74.1 µM (inactive); in the assay with NCI-H460, 52.8 µM (inactive).
On to `CO/C(C)=N/CCC1=CCCCC1`, for which the GI50 in the assay on SNB-75 was > 100 µM (inactive); in the assay with HCT-116 it was > 100 µM (inactive); in the assay on MDA-N it was > 100 µM (inactive); with HCC 2998 it was 52.5 µM (inactive); with DU-145, > 100 µM (inactive); in the assay with MDA-MB-435 it was > 100 µM (inactive). For the same compound, the GI50 in the assay on RPMI-8226, in the assay with SK-MEL-2, with IGROV-1, in the assay on SNB-19, with MOLT-4 and in the assay with BT-549 was > 100 µM (inactive) throughout. For the same compound, the GI50 in the assay on 786-0, in the assay with PC-3, in the assay on HT-29, in the assay with UACC-257 and with NCI-H460 was > 100 µM (inactive) in each case.
For `CCNC(=O)Nc1cccc(NC(=O)NCC)n1`, the GI50 is 24.5 µM (inactive) with SNB-75; > 100 µM (inactive) in the assay with HCT-116; > 100 µM (inactive) in the assay with MDA-N; 62.1 µM (inactive) in the assay with HCC 2998; > 100 µM (inactive) with DU-145; > 100 µM (inactive) with SN12C. The GI50 in the assay with MDA-MB-435, with SF-539, in the assay on IGROV-1, with SNB-19, with MOLT-4 and with BT-549 was > 100 µM (inactive) in each case. Besides, the GI50 in the assay on 786-0 was > 100 µM (inactive); in the assay with PC-3 it was 59.3 µM (inactive); with CCRF-CEM, > 100 µM (inactive); in the assay with HT-29 it was 76.4 µM (inactive); in the assay with UACC-257, 92.9 µM (inactive); in the assay on NCI-H460 it was > 100 µM (inactive).
On to `COC(=O)c1cc(OS(=O)(=O)C(F)(F)F)c(=O)n2c1CCCC2`, for which the GI50 in the assay with SNB-75, in the assay on HCT-116, in the assay on MDA-N, in the assay with DU-145, in the assay on SN12C and with MDA-MB-435 was > 100 µM (inactive) throughout. The GI50 with SF-539, in the assay on SK-MEL-2, with IGROV-1, in the assay on SNB-19, with MOLT-4 and in the assay with BT-549 was > 100 µM (inactive) throughout. In addition, the GI50 in the assay with 786-0, in the assay with PC-3, with CCRF-CEM, in the assay on HT-29 and with UACC-257 was > 100 µM (inactive) each time.
On to `Nc1ncnc2c1ncn2C1OC(CO)CC1O` (stereo not drawn), for which the GI50 with SNB-75 is 35.2 µM (inactive); in the assay with HCT-116 it was 20 µM (inactive); in the assay with MDA-N, 38.7 µM (inactive); with HCC 2998, 19 µM (inactive); in the assay with DU-145, 30.1 µM (inactive); in the assay with SN12C, 25.6 µM (inactive). The GI50 with MDA-MB-435 is > 10 µM (inactive); with SF-539, 34.7 µM (inactive); in the assay with IGROV-1, > 100 µM (inactive); in the assay on SNB-19, 26.9 µM (inactive); with MOLT-4, > 100 µM (inactive); in the assay on BT-549, 29.9 µM (inactive). Moreover, the GI50 was 17.5 µM (inactive) in the assay on 786-0, 9.27 µM (inactive) with PC-3, 34.3 µM (inactive) in the assay on CCRF-CEM and > 100 µM (inactive) in the assay on UACC-257.

These data come from ChEMBL document CHEMBL1201862, “PubChem BioAssay data set” (2004).
